The source of these data is patent publication US20120094995A1, “2-AZA-BICYCLO[2.2.1]HEPTANE COMPOUNDS AND USES THEREOF” (ASTRAZENECA AB, priority 2009, published 2012).

As a reminder, the IC50 is the concentration that gives 50% inhibition.

Molecules are shown by their SMILES.

The target of the first assay is T1, human GlyT1b (Homo sapiens, UniProt P48067).
T1 construct: expressed in transfected cells
T1 sequence (P48067 1-652 isoform P48067-3): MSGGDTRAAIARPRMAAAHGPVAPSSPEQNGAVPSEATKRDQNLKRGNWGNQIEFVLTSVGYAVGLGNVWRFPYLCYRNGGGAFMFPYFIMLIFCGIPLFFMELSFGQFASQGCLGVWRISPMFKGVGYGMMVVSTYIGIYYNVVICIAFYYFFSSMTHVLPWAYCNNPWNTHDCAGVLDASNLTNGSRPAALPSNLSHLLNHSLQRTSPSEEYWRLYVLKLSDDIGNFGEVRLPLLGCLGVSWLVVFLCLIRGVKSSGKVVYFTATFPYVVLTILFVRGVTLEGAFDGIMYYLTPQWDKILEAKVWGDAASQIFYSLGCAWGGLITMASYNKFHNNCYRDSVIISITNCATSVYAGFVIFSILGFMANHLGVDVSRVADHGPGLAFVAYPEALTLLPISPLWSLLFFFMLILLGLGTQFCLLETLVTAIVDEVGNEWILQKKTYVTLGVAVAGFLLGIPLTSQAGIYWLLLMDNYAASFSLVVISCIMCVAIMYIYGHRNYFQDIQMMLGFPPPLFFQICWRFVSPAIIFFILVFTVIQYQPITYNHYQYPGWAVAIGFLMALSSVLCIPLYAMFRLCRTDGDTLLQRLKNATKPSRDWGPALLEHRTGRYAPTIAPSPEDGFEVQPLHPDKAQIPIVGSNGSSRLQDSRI
As to the kind of experiment: [3H] Glycine Uptake Assay (SPA) in recombinant hGlyT1b-CHO cells. The class given is cell-based. As to conditions: Table 1. The method, then: A. [3H] Glycine Uptake Assay
Preparation of recombinant human GlyT1b-CHO cells (hGlyT1b-CHO). The human GlyT1b CDS (GC002087, NM_006934) was cloned downstream of a CMV promoter in a bicistronic expression vector containing a hygromycin B resistance gene. CHO-K1 cells (ATCC) were transfected with the recombinant vector containing GlyT1b using Lipofectamine 2000 (Invitrogen) and cultured in Ham's/F12 media supplemented with 10% fetal bovine serum, 2 mM L-glutamine at 37° C., 5% CO2, 90% humidity. Twenty-four hours after transfection, cells were diluted and switched to media containing 0.5 mg/ml hygromycin B. Antibiotic resistant cells were obtained after 21 days of culture in the presence of hygromycin B. Clonal stable cell lines were isolated by FACS single cell deposition into 96-well plates.
Cells used were Recombinant hGlyT1b/CHO. These cells were cultured in cell culture medium (Ham's/F12 (Modified) (Mediatech, 10-080-CM), containing 10% FBS, 2 mM L-glutamine (Invitrogen 25030-149) and 0.5 mg/mL hygromycin B (Invitrogen, 10687-010)) in 175 cm^2 flasks until near confluence before use in the assay.
Cell medium in a cell culture flask containing near confluent cells was removed and 5 mL of cell stripper was added to submerge all cells on the surface of the culture flask. Cell stripper was removed immediately and the flask incubated in a 37° C. incubator for ˜5 min. Cells were shaken loose and suspended in 5 mL of PBS. After splitting cells to initiate a new flask(s), the cells remaining were collected by centrifugation, counted, and resuspended in assay buffer to a density of ˜2 million/mL. The cell suspension was kept at room temperature before use. The assays buffer was 10 mM HEPES, pH 7.4, containing 150 mM NaCl, 5 mM KCl, 1.5 mM CaCl2, 1.5 mM MgCl2, 0.45 mg/mL L-alanine (added fresh), and 1.8 mg/mL D-glucose (added fresh).
WGA PTV beads were suspended in assay buffer (2 mg/ml) containing 60 nM [^3H]Glycine (PerkinElmer (NET-004, [2-^3H]Glycine, 53.3 Ci/mmol, 1 mCi/mL)) and 20 μM unlabeled glycine and the suspension was kept at room temperature before assay.
To the wells of an OptiPlate, 2 μl DMSO containing a test compound was spotted. This was followed by addition of 98 μl of cell suspension (˜1 million/ml final). After incubating cells with compound for ˜15 min, 100 μl of the SPA (200 μg/well final) and isotope mixture (30 nM isotope with 10 μM cold glycine, final) was added to initiate the glycine uptake. At 2 h, the plate was read on a TopCount to quantify SPA counts.
For `COc1cccc(OC)c1C(=O)NC(c1ccccc1)C12CCC(CC1)N2C` (stereo not shown) [Example 11, 2,6-dimethoxy-N-((7-methyl-7-azabicyclo[2.2.1]heptan-1-yl)(phenyl)methyl)benzamide], the 50% inhibitory concentration (IC50) is 349 nM.
On the same count and under the same terms, as for `CN1C2CCC1(C(NC(=O)c1cccc(Cl)c1Cl)c1ccccc1)CC2` (stereo not shown) [Example 12, 2,3-dichloro-N-((7-methyl-7-azabicyclo[2.2.1]heptan-1-yl)(phenyl)methyl)benzamide], the figure is 33.6 nM; as for `Cc1c(C(=O)NC(c2ccccc2)C23CCC(CC2)N3C)cccc1C(F)(F)F` (stereo not shown) [Example 16, 2-methyl-N-((7-methyl-7-azabicyclo[2.2.1]heptan-1-yl)(phenyl)methyl)-3-(trifluoromethyl)benzamide], 18.6 nM; as for `CN1C2CCC1([C@H](NC(=O)c1ccc(Cl)cc1Cl)c1ccccc1)CC2` (single isomer, unassigned) [Example 14, (R*)-2,4-dichloro-N((7-methy1-7-azabicyclo[2.2.1]heptan-1-yl)(phenyl)methyl)benzamide], 305 nM.
Take `CN1C2CCC1(C(NC(=O)c1cccc(Cl)c1Cl)c1ccccc1)CC2` (single isomer, unassigned) [Example 13, (R*)-2,3-dichloro-N-((7-methyl-7-azabicyclo[2.2.1]heptan-1-yl)(phenyl)methyl)benzamide]: the IC50 amounted to 72 nM.
Take `CSc1ncccc1C(=O)NC(c1ccccc1)C12CCC(CC1)N2C` (stereo not shown) [Example 10, N-((7-methyl-7-azabicyclo[2.2.1]heptan-1-yl)(phenyl)methyl)-2-(methylthio)nicotinamide]: the IC50 is 145 nM.
With `Cc1cccc(C)c1C(=O)NC(c1cccc(Br)c1)C12CCC(CC1)N2C` (stereo not shown) [Example 8, N-((3-bromophenyl)(7-methyl-7-azabicyclo[2.2.1]heptan-1-yl)methyl)-2,6-dimethylbenzamide], the IC50 came out at 3 nM.

Still in this assay, the particulars now being: Table 2, unit from table title.
In the case of `Cc1cccc(C)c1C(=O)N[C@H](c1ccccc1)C12CCC(CC1)N2CCN` [Example 40], the IC50 is 13 nM.
`Cc1cccc(C)c1C(=O)N[C@H](c1ccccc1)C12CCC(CC1)N2CC(C)C` [Example 26]: the half-inhibitory concentration (IC50) was found to be 21 nM.
On to `CCCOc1ccc(C(NC(=O)c2c(C)cccc2C)C23CCC(CC2)N3C)cc1` (stereo not shown) [Example 100], for which the IC50 worked out at 223 nM.
Still for that read-out and setting: as for `Cc1cccc(C)c1C(=O)N[C@H](c1ccccc1)C12CCC(CC1)N2Cc1ccccn1` [Example 49], the figure is 155 nM; as for `Cc1ccccc1C(=O)NC(c1ccccc1)C12CCC(CC1)N2C` (single isomer, unassigned) [Example 59], 38 nM.
Same read-out and setting: the same measure for `CC(=O)Nc1cccc(C(NC(=O)c2c(C)cccc2C)C23CCC(CC2)N3C)c1` (stereo not shown) [Example 102]: 127 nM; for `Cc1cccc(C)c1C(=O)NC(c1ccc(N2CCOCC2)cc1)C12CCC(CC1)N2C` (stereo not shown) [Example 97]: 73 nM; for `CCN1C2CCC1(C(NC(=O)c1c(Cl)cncc1Cl)c1ccccc1)CC2` (stereo not shown) [Example 50]: 237 nM.
For the molecule `CCCCN1C2CCC1([C@H](NC(=O)c1c(C)cccc1C)c1ccccc1)CC2` [Example 27], the half-maximal inhibitory concentration (IC50) came out at 11 nM.
The same measure, in the same setting: as for `CCN1C2CCC1(C(NC(=O)c1ccnc(C(F)(F)F)c1F)c1ccccc1)CC2` (stereo not shown) [Example 52], the figure is 297 nM; as for `COCCN1C2CCC1([C@H](NC(=O)c1c(C)cccc1C)c1ccccc1)CC2` [Example 24], 22 nM.
Same read-out and setting: the same measure for `COCCN1C2CCC1([C@H](NC(=O)c1ccc(F)cc1C)c1ccccc1)CC2` [Example 96]: 167 nM; for `COCCCN1C2CCC1(C(NC(=O)c1cccnc1SC)c1ccccc1)CC2` (stereo not shown) [Example 55]: 310 nM; for `CC(C)N1C2CCC1(C(NC(=O)c1c(Cl)cncc1Cl)c1ccccc1)CC2` (single isomer, unassigned) [Example 54]: 100 nM.
For `CSc1ncccc1C(=O)N[C@H](c1ccccc1)C12CCC(CC1)N2C1CC1` [Example 57], the IC50 turned out to be 45 nM.
Same read-out and setting: as for `Cc1cccc(C)c1C(=O)N[C@H](c1ccccc1)C12CCC(CC1)N2C[C@H]1CCCN1` [Example 80], the figure is 313 nM; as for `CCN1C2CCC1(C(NC(=O)c1cccnc1SC)c1ccccc1)CC2` (single isomer, unassigned) [Example 73], 46 nM.
The same measure, in the same setting: as for `Cc1cccc(C)c1C(=O)N[C@H](c1ccc(F)cc1)C12CCC(CC1)N2` [Example 30], the figure is 93 nM; as for `Cc1cc(C(NC(=O)c2c(C)cccc2C)C23CCC(CC2)N3C)ccn1` (single isomer, unassigned) [Example 85], 23 nM.
`CCCOC(=O)c1ccc(C(NC(=O)c2c(C)cccc2C)C23CCC(CC2)N3C)cc1` (stereo not shown) [Example 98]: the 50% inhibitory concentration (IC50) worked out at 39 nM.
In the case of `Cc1cccc(C)c1C(=O)NC(c1cccc(C#N)c1)C12CCC(CC1)N2C` (stereo not shown) [Example 79], the IC50 came out at 87 nM.
Still for that read-out and setting: as for `Cc1cccc(C)c1C(=O)N[C@H](c1ccccc1)C12CCC(CC1)N2Cc1ccccc1` [Example 25], the figure is 174 nM.
Consider `Cc1cccc(C)c1C(=O)NC(c1ccc(F)cc1)C12CCC(CC1)N2C` (single isomer, unassigned) [Example 47], for which the IC50 is 2 nM.
On the same count and under the same terms, the same measure for `Cc1cccc(C)c1C(=O)N[C@H](c1ccccc1)C12CCC(CC1)N2CCN1CCOC1=O` [Example 70]: 3 nM.
Take `Cc1cccc(C)c1C(=O)NC(c1cccc(F)c1)C12CCC(CC1)N2` (stereo not shown) [Example 35]: the IC50 was 18 nM.
Still for that read-out and setting: as for `CN1C2CCC1(C(NC(=O)c1cccc(C(F)(F)F)c1Cl)c1ccccc1)CC2` (stereo not shown) [Example 20], the figure is 26 nM; as for `Cc1cccc(C)c1C(=O)N[C@H](c1ccccc1)C12CCC(CC1)N2CC1CCCO1` (stereo partly shown) [Example 56], 4 nM.
In the case of `Cc1cccc(C)c1C(=O)NC(c1cccc(F)c1)C12CCC(CC1)N2C` (single isomer, unassigned) [Example 46], the IC50 is 2 nM.
On the same count and under the same terms, the same measure for `Cc1cccc(C)c1C(=O)N[C@H](c1ccccc1)C12CCC(CC1)N2CCO` [Example 34]: below 1.28 nM; for `Cc1cc(F)ccc1C(=O)NC(c1ccccc1)C12CCC(CC1)N2C` (single isomer, unassigned) [Example 62]: 48 nM; for `CCCCc1cccc(C(NC(=O)c2c(C)cccc2C)C23CCC(CC2)N3C)c1` (stereo not shown) [Example 103]: 119 nM.
On the same count and under the same terms, as for `COCCN1C2CCC1([C@H](NC(=O)c1ccccc1C)c1ccccc1)CC2` [Example 92], the figure is 202 nM; as for `Cc1cc(C(NC(=O)c2c(C)cccc2C)C23CCC(CC2)N3)ccn1` (stereo not shown) [Example 83], 136 nM.
Turning to `Cc1cccc(C)c1C(=O)N[C@H](c1ccccc1)C12CCC(CC1)N2CCN1CCCC1` [Example 69], the IC50 was 51 nM.
In the case of `Cc1cccc(C)c1C(=O)NC(c1cccc(F)c1)C12CCC(CC1)N2` (single isomer, unassigned) [Example 76], the IC50 worked out at 297 nM.
The same measure, in the same setting: the same measure for `Cc1cccc(C)c1C(=O)NC(c1cccnc1)C12CCC(CC1)N2` (stereo not shown) [Example 60]: 30 nM.
On to `Cc1cccc(C)c1C(=O)NC(c1ccc(O)cc1)C12CCC(CC1)N2C` (stereo not shown) [Example 99], for which the IC50 came out at 6 nM.
`Cc1cccc(C)c1C(=O)N[C@H](c1ccccc1)C12CCC(CC1)N2CCN1CCOCC1` [Example 71]: the 50% inhibitory concentration (IC50) was below 2 nM.
The same measure, in the same setting: as for `Cc1cccc(C)c1C(=O)N[C@H](c1ccccc1)C12CCC(CC1)N2CCC(F)(F)F` [Example 58], the figure is 3 nM.
